The assay addresses Concanavalin-A (Canavalia ensiformis) (UniProt P02866). The assay can be described thus: Binding affinity to jack bean concanavalin A by enzyme-linked lectin assay.

SMILES strings stand for the structures. Activity calls are given as the source filed them. No cut-off for these calls is given here.

Consider five compounds from ChEMBL document CHEMBL1139780, “Pentamer is the minimum structure for oligomannosylpeptoids to bind to concanavalin A” (Bioorg Med Chem Lett, 2007).

Concanavalin-A (Canavalia ensiformis), sequence (P02866 whole entry): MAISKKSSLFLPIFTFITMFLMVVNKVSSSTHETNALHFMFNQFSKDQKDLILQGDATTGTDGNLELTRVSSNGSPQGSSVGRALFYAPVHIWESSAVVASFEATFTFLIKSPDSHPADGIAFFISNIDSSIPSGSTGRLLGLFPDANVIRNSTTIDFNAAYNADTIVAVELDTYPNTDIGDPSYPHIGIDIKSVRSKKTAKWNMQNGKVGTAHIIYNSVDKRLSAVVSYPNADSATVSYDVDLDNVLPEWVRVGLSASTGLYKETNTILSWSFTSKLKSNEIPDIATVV

Turning to `NC(=O)CN(CCO[C@H]1O[C@H](CO)[C@@H](O)[C@H](O)[C@@H]1O)C(=O)CN(CCO[C@H]1O[C@H](CO)[C@@H](O)[C@H](O)[C@@H]1O)C(=O)CN(CCO[C@H]1O[C@H](CO)[C@@H](O)[C@H](O)[C@@H]1O)C(=O)CN(CCO[C@H]1O[C@H](CO)[C@@H](O)[C@H](O)[C@@H]1O)C(=O)CN(CCO[C@H]1O[C@H](CO)[C@@H](O)[C@H](O)[C@@H]1O)C(=O)CNC(=O)CCCCC1SC[C@@H]2NC(=O)N[C@H]12` (stereo not given in full), the outcome was Active. To `CN(C)c1cccc2c(S(=O)(=O)N(CCO[C@H]3O[C@H](CO)[C@@H](O)[C@H](O)[C@@H]3O)CC(=O)N(CCO[C@H]3O[C@H](CO)[C@@H](O)[C@H](O)[C@@H]3O)CC(=O)N(CCO[C@H]3O[C@H](CO)[C@@H](O)[C@H](O)[C@@H]3O)CC(N)=O)cccc12` belongs “Active”; to `NC(=O)CN(CCO[C@H]1O[C@H](CO)[C@@H](O)[C@H](O)[C@@H]1O)C(=O)CN(CCO[C@H]1O[C@H](CO)[C@@H](O)[C@H](O)[C@@H]1O)C(=O)CN(CCO[C@H]1O[C@H](CO)[C@@H](O)[C@H](O)[C@@H]1O)C(=O)CN(CCO[C@H]1O[C@H](CO)[C@@H](O)[C@H](O)[C@@H]1O)C(=O)CN(CCO[C@H]1O[C@H](CO)[C@@H](O)[C@H](O)[C@@H]1O)C(=O)CNC(=O)CCCCCNC(=O)CCCCC1SC[C@@H]2NC(=O)N[C@H]12` (stereo not given in full), “Active”.

In the case of `NC(=O)CCN(CCO[C@H]1O[C@H](CO)[C@@H](O)[C@H](O)[C@@H]1O)C(=O)CN(CCO[C@H]1O[C@H](CO)[C@@H](O)[C@H](O)[C@@H]1O)C(=O)CN(CCO[C@H]1O[C@H](CO)[C@@H](O)[C@H](O)[C@@H]1O)C(=O)CN(CCO[C@H]1O[C@H](CO)[C@@H](O)[C@H](O)[C@@H]1O)C(=O)CN(CCO[C@H]1O[C@H](CO)[C@@H](O)[C@H](O)[C@@H]1O)C(=O)CN(CCO[C@H]1O[C@H](CO)[C@@H](O)[C@H](O)[C@@H]1O)C(=O)CNC(=O)CCCCCNC(=O)CCCCC1SC[C@@H]2NC(=O)N[C@H]12` (stereo not given in full), the result was Active. Turning to `NC(=O)CCN(CCO[C@H]1O[C@H](CO)[C@@H](O)[C@H](O)[C@@H]1O)C(=O)CN(CCO[C@H]1O[C@H](CO)[C@@H](O)[C@H](O)[C@@H]1O)C(=O)CN(CCO[C@H]1O[C@H](CO)[C@@H](O)[C@H](O)[C@@H]1O)C(=O)CN(CCO[C@H]1O[C@H](CO)[C@@H](O)[C@H](O)[C@@H]1O)C(=O)CN(CCO[C@H]1O[C@H](CO)[C@@H](O)[C@H](O)[C@@H]1O)C(=O)CN(CCO[C@H]1O[C@H](CO)[C@@H](O)[C@H](O)[C@@H]1O)C(=O)CNC(=O)CCCCC1SC[C@@H]2NC(=O)N[C@H]12` (stereo not given in full), the outcome was Active.
